# Source: patent US12084411B2, “Hinokitiol analogues, methods of preparing and pharmaceutical compositions thereof” (The Board of Trustees of the University of Illinois, priority 2018, dated 2024)
# Marks after values point to notes of the source that are not given here.
# Legend:
# fet3Δarn1-4Δ yeast = test: Growth rescue of yeast missing all known siderophore transporters on agar plates; assay type: cell-based, Saccharomyces cerevisiae; conditions: 10 μM hinokitiol, 10 μM FeCl3
# Protocol: MES/Tris buffer at pH=7.0 containing 2% agarose gel, 10 μM FeCl3, and 10 μM hinokitiol (from 40X stock in DMSO). […] Yeast were grown overnight in YPD media and diluted to an optical density at 600 nm (OD600) of 1.0 in low iron SD media before 10-fold serial dilution and inoculation of these yeast suspensions (10 μL per dot) onto the low iron SD-agar plates described above containing either DMSO vehicle or hinokitiol (10 μM from 40X DMSO stock).
# [1] = Iron (II) binding affinity, ferrozine competition assay
# Protocol: (§1) Specifically, the association constant for iron (II) was determined by a ferrozine competition assay (KA of ferrozine=3.65×10^15) (60). FeCl2 (25 μM) was pre-mixed with ferrozine (75 μM) in a 25 mM MES/Tris buffer at pH=7.0 containing 62.5 mM sodium ascorbate. Then increasing concentrations of small molecule (from 40X stocks in DMSO) were added to the indicated final concentrations. The solutions were allowed to equilibrate for 24 hours before reading of the absorbance at 562 nm. […] The system was allowed to equilibrate overnight, and the absorbance corresponding to the Fe(chelator)3 complex was determined. The EC50 values for each chelator were calculated by a nonlinear curve fit (Hill1) on OriginPro by plotting the absorbance vs. concentration of titrant, and the KA for each complex was determined from the equation: KA, ligand=(KA, competitor*[EC50])/[ligand] where the ligand is the molecule originally bound to iron, and the competitor is the competing chelator.
# [2] = Iron (III) binding affinity, EDTA or citrate competition assay; conditions: for KA for iron (III): EDTA competition (citrate for maltol), pH 7.0
# Protocol: as §1
# [3] = Metal efflux from liposomes using PhenGreen; assay type: biochemical
# Protocol: Hinokitiol-promoted release of different divalent metals from POPC liposomes was performed by tracking the quenching of PhenGreen (Fisher P14312) similar to previously reported (67, 68). […] In all cases, liposomes were prepared using 5 mM of either FeCl2, MnCl2, CoCl2, NiCl2, ZnCl2, or CuCl2 added to the internal buffer. […] The liposome suspension was diluted to 1 mM of phosphorus. The liposome suspension was transferred to a 96-well plate, and either DMSO or 2 μM hinokitiol (from a 40X stock in DMSO) was added at t=2 min. […] After one hour, the liposomes were lysed with Triton-X and the fluorescence was recorded. […] The DMSO-treated and hinokitiol-treated liposomes had similar fluorescence quenching levels after lysis. […] The t1/2 values were calculated using an asymptotic fit in OriginPro. The t1/2 values indicate the time required to reach half of the maximum metal efflux for each metal.
# [4] = Rate of iron (III) reduction; assay type: physicochemical; conditions: 62.5 mM ascorbate buffer
# Protocol: The rate of iron (III) reduction in the absence or presence of hinokitiol was determined using ferrozine to quantify the concentration of iron (II) similar to previously described (71). […] The absorbance at 562 nm, corresponding to Fe(ferrozine)3, was determined at the indicated time points.
# normal Caco-2 monolayers = test: Transepithelial iron transport in normal Caco-2 monolayers; assay type: cell-based, Human; conditions: same concentration as in deficient system
# Protocol: Media from differentiated Caco-2 monolayers (P25-50, 21-28 days post seeding) grown on PET inserts in 6-well plates was aspirated, and monolayers were rinsed with PBS. […] The monolayers were then incubated for four hours at 37° C. unless otherwise noted. A 100 μL aliquot of the basolateral fluid was removed, diluted in scintillation cocktail, and radioactivity was determined on a liquid scintillation counter to quantify relative amounts of ^55Fe transport. To determine intracellular ^55Fe, the basolateral and apical media was removed, and the monolayer was rinsed with PBS (×2). The cells were then lysed with 500 μL of 200 mM NaOH with nutator mixing overnight, and radioactivity was determined on a liquid scintillation counter after diluting the cell lysate in scintillation cocktail. All values were normalized to shControl monolayers unless otherwise noted. Absolute iron levels were determined through calibration of ^55Fe radioactivity levels with known standards and average mg of protein per membrane was determined by protein lysis with RIPA buffer containing protease inhibitors and quantified through a BCA kit according to manufacturer instructions.
# shDMT1 Caco-2 monolayers = test: Imaging of cytosolic iron with calcein green in Caco-2 monolayers; assay type: cell-based, Human; conditions: 25 μM FeCl3, 1 hour
# Protocol: (§2) Temporal live cell imaging of labile iron levels in shDMT1 Caco-2 monolayers was performed after staining of Caco-2 monolayers with calcein green-AM (5 μM) in the apical and basolateral liquid for 30 minutes in pH=7.4 DMEM. […] Final volume administered was 1.5 mL/kg for each mouse, correcting for individual body weight. […] Mice were humanely sacrificed by isoflurane overdose after 6 hours and blood was collected by cardiac puncture. Radioactivity was quantified by gamma counting and calculated as the percentage of gavaged dose (±SEM). Experiments were performed with 4 genotyped-matched mice/day; preliminary analysis determined there were no gender effects on uptake of ^59Fe after intragastric gavage; mixed genders were used in the experiments shown.
# [5] = WST-8 toxicity in J774 cells; assay type: cell-based, mouse; conditions: mouse, wild type J774 cells; Wild Type J774, WST-8 assay after ≥24 hours of incubation
# Protocol: (§3) Determination of small molecule-mediated toxicity in Caco-2, MEL, and/or J774 cells was performed according to manufacturer instructions using a WST-8 kit (Cayman Chemical 10010199) similar to previously reported (76) using a 1000× stock of the indicated small molecule in DMSO to give the indicated final concentration.
# J774 = test: WST-8 toxicity in J774 cells; assay type: cell-based, mouse; conditions: J774 macrophages
# Protocol: as §3
# wild type (+/+) mice = test: 59Fe gut absorption in wild type mice; assay type: in vivo; conditions: 1.5 mg/kg, after one hour
# Protocol: as §2, with “Mice were humanely sacrificed by isoflurane overdose after 6 hours and blood was collected by cardiac puncture.” left out
# FPN-deficient mice = test: Acute injection of hinokitiol in flatiron mice, tissue iron; assay type: in vivo; conditions: 4 hours
# Protocol: FIGS. 26A-26E show the results of acute injection of Hinokitiol in flatiron mice. Wild-type (+/+) and I (ffe/+) mice were administered hinokitiol by IP injection and were sacrificed after 4 h to measure iron content. (A) presents means f SEM (n=48/group). (B)-(E) present means±SEM (n=2/group). * P≤0.05, ** P≤0.005, and *** P≤0.001.
# To characterize the effects of hinokitiol on iron mobilization and distribution in flatiron mice, hinokitiol was administered with increasing doses (1-50 mg/kg) via intraperitoneal (IP) injection. Mice were euthanized 4 hours post-administration, and blood and a range of tissues were collected. […] Total iron in a variety of tissues including liver and spleen was further measured by inductively coupled plasma mass spectrometry (ICP-MS).
# [6] = Single-dose in vivo pharmacokinetics of hinokitiol in mice; conditions: 100 mg/kg
# Protocol: FIGS. 29A-29B show single-dose in vivo pharmacokinetics of hinokitiol in mice. Mice were mixed C57BL/6 and 129/Sv background (2-3 mo. old) were administered various concentrations of hinokitiol (30 or 100 mg Hino/kg body weight) by two different routes (A) intraperitoneal injection and (B) oral gavage. Plasma samples were collected at various timepoints (5-360 minutes) for drug measurement by HPLC.
# In addition to evaluating the pharmacodynamics (effect) of hinokitiol in Al, the pharmacokinetics of hinokitiol were characterized to guide the optimal dose scheme for treatment.
smiles,measurement,setting,value
CC(C)c1cccc(=O)c(O)c1 [hinokitiol],growth restoration of fet3Δarn1-4Δ yeast,fet3Δarn1-4Δ yeast,restores growth
same,KA for iron (II),[1]; pH 7.0,5.1×10^15
same,KA for iron (II),"[1]; pH 7.0, listed as Hinokitiol",5.1 × 10^15
same,KA for iron (III),[2],5.8×10^25
same,KA for iron (III),[2]; listed as Hinokitiol,5.8 × 10^25
same,pFe^III,[2]; estimated from known pFe of EDTA (citrate for maltol),23.7^†
same,Cu^II transport rate relative to Fe^II in liposomes,[3],80 fold
same,reduction of iron (III) in a reducing environment,[4],slowed
same,effect on transepithelial iron transport in wild type system,normal Caco-2 monolayers,negligible effects
same,cytosolic labile iron (calcein green),shDMT1 Caco-2 monolayers,increased labile iron up to 5 μM
same,EC90,[5],> 100 µM
same,observable toxicity,J774,without observable toxicity
same,rate of iron absorption,wild type (+/+) mice,statistically significant increase
same,liver total iron (ICP-MS),FPN-deficient mice; 10 mg/kg IP,releases iron from the liver
same,liver non-heme iron,FPN-deficient mice; 1-50 mg/kg IP,dose-dependent decrease
same,non-heme iron in other tissues,FPN-deficient mice; IP,suggestive of reductions in non-heme iron
same,half-life,[6],increased half-life
